According to patent publication US10766869B2, “Triazoles for the treatment of demyelinating dieases” (Vertex Pharmaceuticals Incorporated, priority 2015, dated 2020):

What was measured:
[1] = system: primary rat mixed cortical cells; test: In vitro myelination assay (MBP positive myelin strands, fold myelin pixels above background); assay type: cell-based; details: Rattus norvegicus, relative to baseline of no added compound, read-out: Fold myelin pixels above background; for fold induction at 1 µM: 1.0 μM compound; for fold induction at 10 µM: 10.0 μM compound
Summary of the method: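 Read-out is total MBP-positive myelin strand pixels per well, detected by custom ridge-tracing software and reported as fold over untreated baseline. Primary P1 rat mixed cortical cells received compound (1.0 or 10.0 μM) for 14 days, with medium half-replaced on days 6 and 10. Standard deviation was taken across all replicates.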

[2] = system: C57BL/6 mice demyelinated with cuprizone; test: In vivo mouse cuprizone assay (new myelin, MBP positive / MOG negative area); details: for effect measured as new myelin generated in response to compound treatment compared to control with no added compound: Regimen A (QD or BID for 14 days via oral gavage), various doses; for effect (new myelin generated compared to control): Regimen A, oral gavage
From the text: Assays for Detecting and Measuring Remyelination Properties of Compounds In Vivo Mouse Cuprizone Assay:
Cuprizone Feeding Protocol:
2 month old female C57BL/6 mice (Stock Number: 000664) were purchased from Jackson Labs and fed for 4-10 months with a 0.2% cuprizone chow (provided by Research Diets, Product # D10020701R, Description AIN-76A Rodent Diet with 0.2% cuprizone) using cuprizone purchased from Sigma (Cat #14690-100G). Chow was provided ad libitum, and refreshed every 4 days to ensure stability of the cuprizone. Mice were maintained on this diet for 4-10 months before initiation of the experiments.
1) 24 hours prior to the start of dosing, 6 to 10 mice were switched from cuprizone chow to normal chow (Picolab rodent diet 20 EXT IRR 5053, irradiated) without added cuprizone. These mice were maintained on normal chow throughout the course of dosing.
2) 6 to 10 mice per group were randomized into new cages such that mice that were housed in one cage during the cuprizone diet were not housed together in one dose group during the study.
3) Mice were dosed with compound in one of two regimens: Regimen A: mice were dosed QD or BID for 14 days via oral gavage. Regimen B: mice were dosed QD or BID for 14 days via IP injection. However, other dosing schedules and/or routes of administration may also be used.
4) On the last day of dosing, dried blood spots were collected at multiple time points following the last dose. Often this was 30 minutes, 2, 6 and 24 hours following the final dose on day 14 via the tail vein.
Perfusion and Sectioning:
1) The day after the last day of dosing, mice were transcardially perfused with 12 ml of PBS (Sigma, P4417) followed by 20 ml of 3.2% paraformaldehyde in PBS (Electron Microscopy Sciences #15714-S). The brains were removed via standard dissection techniques and each was postfixed in 3.2% paraformaldehyde (20 ml) for 24-48 hours at room temperature in sealed scintillation vials.
2) Serial 50 micron sections were collected through the anterior posterior extent of the brain, from just behind the olfactory bulb, through visual cortex using a vibrating microtome, the V-STAR (described in International Publication No. WO 2013/012799 and U.S. Pat. No. 8,967,024 both of which are incorporated herein by reference in their entirety). Sections were collected in phosphate buffered saline (PBS). Vibratome speed was set to 1.1 mm/s and amplitude was set to 0.8 mm.
3) A series of every 24th section was removed for staining yielding 5 sections per brain.
1) Tissue sections were stained using an automated system for processing blots (hereinafter the “blotinator”) (described in WO2011/087646 and U.S. Pat. Nos. 8,337,754 and 8,679,406 each of which is incorporated herein by reference in its entirety). Brain sections were placed in the blotinator plate and bathed in PBS. The blotinator applied primary antibodies (MOG and MBP together) and Hoechst nuclear stain for 12 hours at room temperature with constant shaking.
The following stains were diluted in blocking buffer (described below):
Hoechst nuclear stain (0.5 mg/ml)(bisBenzimide H 33342 trihydrochloride Sigma #33342).
Myelin basic Protein (MBP) antibody (Abcam Cat # ab7349) was diluted at a 1:750 ratio in blocking buffer).
Myelin Oligodendrocyte Glycoprotein (MOG) (R&D systems Cat # AF2439) was diluted at a 1:250 ratio in blocking buffer.
Antibodies were diluted in blocking buffer, which consisted of 0.3% Triton X-100 (Sigma Cat #234729), 0.02% Sodium Azide (Sigma Cat # S2002) and 8% fetal bovine serum in PBS (Sigma Cat # F2442).
2) The blotinator washed the samples 4 times for 5 minutes each with a wash buffer (0.2% Triton X-100 in PBS).
3) The blotinator applied secondary antibodies diluted in blocking buffer and incubated them for 2 hours with constant shaking.
Alexa 488 donkey anti-rat secondary (Life technologies Cat # A-21208) was diluted at 1:1000 in blocking buffer. […]

SMILES	fold induction at 1 µM [1]	fold induction at 10 µM [1]	effect measured as new myelin generated in response to compound treatment compared to control with no added compound [2]	effect (new myelin generated compared to control) ([2]; 20 mpk)	effect (new myelin generated compared to control) ([2]; 30 mpk)	effect (new myelin generated compared to control) ([2]; 50 mpk)	effect (new myelin generated compared to control) ([2]; 10 mpk)	effect (new myelin generated compared to control) ([2]; 8 mpk)
Cc1cc(Nc2ncn(-c3cc(F)cc(F)c3)n2)cc(N2CC(N3CCOCC3)C2)c1 [Compound 485, 1-(3,5-difluorophenyl)-N-[3-methyl-5-(3-morpholinoazetidin-1-yl)phenyl]-1,2,4-triazol-3-amine]	10 to 100	1 to 10	positive effect	positive effect	positive effect			
Fc1cc(F)cc(-n2cnc(Nc3cc(C(F)F)cc(N4CCN(C5COC5)CC4)n3)n2)c1 [Compound 512, 4-(difluoromethyl)-N-[1-(3,5-difluorophenyl)-1,2,4-triazol-3-yl]-6-[4-(oxetan-3-yl)piperazin-1-yl]pyridin-2-amine]	100 to 1000	100 to 1000	positive effect			positive effect		
Fc1ccc(-n2cnc(Nc3cc(C(F)F)cc(N4CCN(C5COC5)CC4)n3)n2)cc1F [Compound 524, 4-(difluoromethyl)-N-[1-(3,4-difluorophenyl)-1,2,4-triazol-3-yl]-6-[4-(oxetan-3-yl)piperazin-1-yl]pyridin-2-amine]	100 to 1000	100 to 1000	positive effect	positive effect	positive effect		positive effect	
Cc1cc(Nc2ncn(-c3cc(F)cc(F)c3)n2)c(F)c(N2CCN(C3COC3)CC2)c1 [Compound 691, 1-(3,5-Difluorophenyl)-N-(2-fluoro-5-methyl-3-(4-(oxetan-3-yl)piperazin-1-yl)phenyl)-1H-1,2,4-triazol-3-amine]	10 to 100	10 to 100	positive effect	positive effect			positive effect	positive effect
